B1: zebrafish P2X4 receptor (residues 9-382) (receptor, UniProt F8W463 9-382, looked up)
chain: DSVSQCFFDYYTSKILIIRSKKVGTLNRFTQALVIAYVIGYVCVYNKGYQDTDTVLSSVTTKVKGIALTNTSELGERIWDVADYIIPPQEDGSFFVLTNMIITTNQTQSKCAENPTPASTCTSHRDCKRGFNDARGDGVRTGRCVSYSASVKTCEVLSWCPLEKIVDPPNPPLLADAENFTVLIKNNIRYPKFNFNKRNILPNINSSYLTHCVFSRKTDPDCPIFRLGDIVGEAEEDFQIMAVHGGVMGVQIRWDCDLDMPQSWCVPRYTFRRLDNKDPDNNVAPGYNFRFAKYYKNSDGTETRTLIKGYGIRFDVMVFGQAGKFNIIPTLLNMGAGLALLGLVNVICDWIVLTFMKRKQHYKEQKYTYVDDFG
notes: P2X4 receptor, zebrafish (Danio rerio), GenBank AAH66495.1, residues 9-382 (truncation of the N-terminal 8 and the C-terminal 7 residues); Homotrimer; A C-terminal HRV 3C site stood before TGP and the Twin-Strep-tag; residues of the site may remain after cleavage; also called zfP2X4; source: Sf9 (baculovirus), purified (Strep-Tactin, HRV 3C cleavage, SEC), reconstituted into PMAL-C8 amphipol; not …

Experiments:
[1] = molecular target: T1, human P2X3 receptor, P2X4-like gain-of-function mutant (Homo sapiens, UniProt P56373, M75W/T82I/V98I); assay: patch clamp of ATP-evoked currents in HEK293 cells at […] BX430; format: cell-based
T1 construct: gene P2RX3
T1 sequence (P56373 1-397 M75W/T82I/V98I): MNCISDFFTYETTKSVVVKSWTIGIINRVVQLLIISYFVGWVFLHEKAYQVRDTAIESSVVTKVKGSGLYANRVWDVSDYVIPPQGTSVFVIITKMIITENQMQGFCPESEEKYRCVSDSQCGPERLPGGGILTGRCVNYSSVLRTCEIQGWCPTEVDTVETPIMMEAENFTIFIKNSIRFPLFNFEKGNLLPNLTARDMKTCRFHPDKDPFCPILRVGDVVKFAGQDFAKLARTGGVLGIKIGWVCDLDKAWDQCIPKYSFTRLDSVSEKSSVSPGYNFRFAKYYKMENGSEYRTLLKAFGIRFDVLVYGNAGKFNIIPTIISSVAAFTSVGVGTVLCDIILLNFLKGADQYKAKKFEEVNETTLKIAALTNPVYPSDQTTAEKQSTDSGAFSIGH

[2] = molecular target: T2, zebrafish P2X4 receptor (zfP2X4) (Danio rerio, UniProt F8W463); assay: cryo-EM structure ([…] Å); whole-cell patch clamp in HEK293 cells
T2 construct: gene p2rx4a; residues 9-382 (GenBank AAH66495.1), trimer in PMAL-C8 amphipol
T2 sequence (F8W463 9-382): B1 chain

[3] = molecular target: the molecule itself; assay: cryo-EM structure; purified zfP2X4 in PMAL-C8 amphipol, incubated with 50 uM BX430 or 125 uM BAY-1797 for 1 h; C3 symmetry imposed, also processed with C1 symmetry

Molecule	patch clamp of ATP-evoked currents in HEK293 cells at 30 and 100 μM BX430 [1]	IC50 [2]	stoichiometry N [3]
CC(C)c1cc(Br)c(NC(=O)Nc2cccnc2)c(Br)c1 [BX430, 1-(2,6-dibromo-4-isopropylphenyl)-3-(3-pyridyl)urea]	the P2X4-like mutant of human P2X3 (M75W/T82I/V98I) conferred sensitivity to BX430	BX430-bound zfP2X4 (EMD-36668) (PDB 8JV5)	
B1			3

Reference: paper PMC10575874, “Structural insights into the allosteric inhibition of P2X4 receptors” (Nature Communications, 2023)
